Experimental data taken from publication PMC3527108 (Journal of medicinal chemistry, 2012).
Like-named read-outs stand apart in the source and are kept apart here.

Tests used:
[1] = tested on: antinociception (tail flick) in mice; assay: Warm-water tail flick test; format: in vivo; details: morphine 10 mg/kg, dose up to 30 mg/kg
[2] = low due to significant hepatic first-pass; cited from earlier work
[3] = tested on: Caco-2 cells; assay: Bidirectional transport in Caco-2 cells; format: in vitro ADME; details: apical/basolateral, up to 2 h
[4] = biological target: mu opioid receptor (MOR) (Homo sapiens, UniProt P35372); assay: Competitive radioligand binding assay, MOR; details: from Ki values
[5] = tested on: GI transit in morphine naive mice; details: similar assay, similar dose (about 10 mg/kg); cited from earlier work
[6] = tested on: GI transit in morphine-pelleted mice; details: cited from earlier work
[7] = tested on: Caco-2 cells; details: cited from earlier work
[8] = tested on: opioid-induced constipation in patients; details: cited from earlier work; for patients with laxation within 4 hours after the first dose: clinical trial, subcutaneous

mu opioid receptor (MOR), sequence (P35372 whole entry, species assumed): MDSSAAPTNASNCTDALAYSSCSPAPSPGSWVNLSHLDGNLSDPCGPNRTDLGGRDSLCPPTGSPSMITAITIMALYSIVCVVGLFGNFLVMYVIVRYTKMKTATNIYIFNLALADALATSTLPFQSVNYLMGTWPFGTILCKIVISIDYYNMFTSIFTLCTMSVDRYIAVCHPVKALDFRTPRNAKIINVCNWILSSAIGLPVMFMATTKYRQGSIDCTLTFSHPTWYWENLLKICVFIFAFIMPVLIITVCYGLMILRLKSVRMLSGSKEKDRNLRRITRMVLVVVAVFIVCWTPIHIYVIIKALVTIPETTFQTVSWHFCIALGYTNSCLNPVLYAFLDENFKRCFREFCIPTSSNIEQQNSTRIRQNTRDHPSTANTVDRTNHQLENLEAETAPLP

O=C(CNC(=O)c1ccncc1)N[C@@H]1CC[C@@]2(O)[C@H]3Cc4ccc(O)c5c4[C@@]2(CCN3CC2CC2)[C@H]1O5 [Compound 12, 17-Cyclopropylmethyl-3,14β-dihydroxy-4,5α-epoxy-6β-{2′-[(pyridine-4′′-yl)carboxamido]acetamido}morphinan]
antagonism of antinociceptive effect of morphine [1]: no apparent antagonism effect

C=CCN1CC[C@]23c4c5ccc(O)c4O[C@H]2C(=O)CC[C@@]3(O)[C@H]1C5 [Naloxone]
systemic bioavailability [2]: ~ 2%

Cc1cnccc1C(=O)N[C@@H]1CC[C@@]2(O)[C@H]3Cc4ccc(O)c5c4[C@@]2(CCN3CC2CC2)[C@H]1O5 [Compound 8, 17-Cyclopropylmethyl-3,14β-dihydroxy-4,5α-epoxy-6β-{[4′-(3′-methylpyridyl)]carboxamido}morphinan]
apparent permeability / bidirectional transport [3]: low permeability

O=C(N[C@@H]1CC[C@@]2(O)[C@H]3Cc4ccc(O)c5c4[C@@]2(CCN3CC2CC2)[C@H]1O5)c1ccnc(Cl)c1 [Compound 1, 17-Cyclopropylmethyl-3,14β-dihydroxy-4,5α-epoxy-6β-{[4′-(2′-chloropyridyl)]carboxamido}morphinan]
MOR selectivity over DOR [4]: over 1000 fold

O=C(N[C@@H]1CC[C@@]2(O)[C@H]3Cc4ccc(O)c5c4[C@@]2(CCN3CC2CC2)[C@H]1O5)c1ccncc1 [NAP, 17-cyclopropylmethyl-3, 14β-dihydroxy-4,5α-epoxy-6β-[(4’ -pyridyl)carboxamido]morphinan]
effect of compound alone on intestinal motility [5]: intestinal motility decreased
ED50 in the GI transit assay ([6]; GI transit assay): 8.8 µg/kg
incidence of diarrhea ([6]; high doses): incidence of diarrhea associated with high doses
apparent permeability [7]: significantly low

C[N@+]1(CC2CC2)CC[C@]23c4c5ccc(O)c4O[C@H]2C(=O)CC[C@@]3(O)[C@H]1C5 [MNTX, methylnaltrexone]
efficiency to induce SBM [8]: ≤ 62%
patients with laxation within 4 hours after the first dose ([8]; placebo 14%): 62%
patients with laxation within 4 hours after the first dose ([8]; placebo 15%): 48%
